Experimental data as given in ChEMBL document CHEMBL6109085, “Furazanopyrazine-based novel promising anticancer agents interfering with the eicosanoid biosynthesis pathways by dual mPGES-1 and sEH inhibition” (Eur J Med Chem, 2025).
pIC50: −log10 of the molar value.

Legend:
[1] = Microsomal stability in human liver microsomes assessed as half-life preincubated for 5 mins followed by NADPH and UDP-GlcUA addition and measured after 30 to 120 mins by UHPLC analysis; format: ADME, Microsome; details: time 35-125 min
[2] = Microsomal stability in human liver microsomes assessed as intrinsic clearance preincubated for 5 mins followed by NADPH and UDP-GlcUA addition and measured after 30 to 120 mins by UHPLC analysis; format: ADME, Microsome; details: time 35-125 min, read-out: CLH
[3] = test system: HCT-116; assay: Antiproliferative activity against human HCT-116 cells assessed as reduction in cell survival index incubated for 48 hrs by MTT assay; details: HCT-116, 48 h
[4] = Cytotoxicity against human HaCaT cells assessed as reduction in cell survival index incubated for 48 hrs by MTT assay; format: toxicity, cell-based
[5] = biological target: T1, Bifunctional epoxide hydrolase 2 (Homo sapiens) (UniProt P34913); assay: Inhibition of recombinant human sEH extracted from baculovirus infected Sf9 cells using PHOME as substrate at 10 uM preincubated for 15 mins followed by PHOME substrate addition and measured after 60 mins by fluorescence based analysis relative to control; details: time 75.0 min
T1 sequence (whole entry): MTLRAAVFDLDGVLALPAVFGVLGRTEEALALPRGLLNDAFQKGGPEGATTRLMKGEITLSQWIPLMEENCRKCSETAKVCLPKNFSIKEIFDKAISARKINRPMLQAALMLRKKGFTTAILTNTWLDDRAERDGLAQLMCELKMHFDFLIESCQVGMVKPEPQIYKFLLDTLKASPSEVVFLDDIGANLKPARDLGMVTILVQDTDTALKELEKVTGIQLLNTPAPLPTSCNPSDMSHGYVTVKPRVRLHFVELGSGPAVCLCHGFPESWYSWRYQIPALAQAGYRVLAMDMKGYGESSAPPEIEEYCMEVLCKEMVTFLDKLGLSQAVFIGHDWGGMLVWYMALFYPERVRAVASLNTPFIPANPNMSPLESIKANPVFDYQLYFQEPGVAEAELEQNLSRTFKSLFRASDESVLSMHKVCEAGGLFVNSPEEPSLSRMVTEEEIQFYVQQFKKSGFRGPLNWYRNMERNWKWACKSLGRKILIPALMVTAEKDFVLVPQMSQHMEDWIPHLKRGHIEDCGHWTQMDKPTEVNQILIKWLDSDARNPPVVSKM

Row | SMILES | half-life [1] [h] | microsomal CLint [2] [µL/min/mg] | pIC50 [3] | IC50 at 48 h [4] [µM] | inhibition [5] [%]
1 | O=C1c2ccc(OCc3ccccc3)cc2-c2nc3nonc3nc21 | 2.74 | 8.42 |  |  | 
2 | O=C(Oc1ccc2c(c1)-c1nc3nonc3nc1C2=O)c1ccccc1 | 1.16 | 19.9 |  |  | 
3 | O=C1c2ccc(OCCc3cccc(C(F)(F)F)c3)cc2-c2nc3nonc3nc21 | 2.65 | 8.73 | 5.08 | 17 | 
4 | O=C(COc1ccc2c(c1)-c1nc3nonc3nc1C2=O)OCc1ccccc1 | 0.075 | 307 |  |  | 48
5 | O=C1c2ccc(OCCCc3ccccc3)cc2-c2nc3nonc3nc21 | 5.43 | 4.25 | 5.19 | 28 | 
6 | O=C1c2ccc(OCCc3ccc(F)cc3)cc2-c2nc3nonc3nc21 | 0.715 | 32.3 |  |  | 
7 | O=C1c2ccc(OCc3ccc(Br)cc3)cc2-c2nc3nonc3nc21 | 3.97 | 5.82 |  |  | 
